Experiment [1] addresses T1, recombinant METTL3/METTL14 complex (Homo sapiens, UniProt Q86U44).
T1 construct: purchased Active Motif 311970; host or cells: Sf9 cells
As to the kind of experiment: METTL3/14 Scintillation Proximity Assay (SPA), RNA methyltransferase activity. The format is biochemical. Conditions: 5.31 nM METTL3/14 complex, 250 nM RNA substrate, 1 μM 3H-SAM, 90 min; for compounds marked * best of the two separated forms.

For the next experiment, the system named is Kasumi-1 cells. The experiment in a line: Kasumi-1 cellular viability assay (ATP-Lite, 72 h). Conditions: Homo sapiens, ATP-Lite luminescence, % viability relative to DMSO. It is filed as cell-based. An outline of the steps: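 Kasumi-1 AML cells, 15000/well in RPMI-1640 with 10% FBS, were exposed to compound titrations (0.1% final DMSO) for 72 h at 37 °C, 5% CO2. ATP-Lite One Step luminescence gave % viability versus DMSO control, and IC50 came from the concentration-response.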

The test system of a further experiment is Caov-3 cells. The experiment in a line: Caov-3 cellular viability assay (ATP-Lite, 72 h). Conditions: Homo sapiens, ATP-Lite luminescence, % viability relative to DMSO. It is filed as cell-based. In short, it runs like this:
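10000 cells/well treated 72 h at 37 °C, 5% CO2, in RPMI-1640 with 10% FBS and 0.1% DMSO final. Viability by ATP-Lite One Step luminescence. Expressed as % of DMSO control, with IC50 from each compound's concentration-response curve.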

For orientation: pIC50 means the negative decadic logarithm of the IC50, by convention in mol/L.

pIC50: −log10 of the molar value.

T1 sequence (Q86U44 whole entry): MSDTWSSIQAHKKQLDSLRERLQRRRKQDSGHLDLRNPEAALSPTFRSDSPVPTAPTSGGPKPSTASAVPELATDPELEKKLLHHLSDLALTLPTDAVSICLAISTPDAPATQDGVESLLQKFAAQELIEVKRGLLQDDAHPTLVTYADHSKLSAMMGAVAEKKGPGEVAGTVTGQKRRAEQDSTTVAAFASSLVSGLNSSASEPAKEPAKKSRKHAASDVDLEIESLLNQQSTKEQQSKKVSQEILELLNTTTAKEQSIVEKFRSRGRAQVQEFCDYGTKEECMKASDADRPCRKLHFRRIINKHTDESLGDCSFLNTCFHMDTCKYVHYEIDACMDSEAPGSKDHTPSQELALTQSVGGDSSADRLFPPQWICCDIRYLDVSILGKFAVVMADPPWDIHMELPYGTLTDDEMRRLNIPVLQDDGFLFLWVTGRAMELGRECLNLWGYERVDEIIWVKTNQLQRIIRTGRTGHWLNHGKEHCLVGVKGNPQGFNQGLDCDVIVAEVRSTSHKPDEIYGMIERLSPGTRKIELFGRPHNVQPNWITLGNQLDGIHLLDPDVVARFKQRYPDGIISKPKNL
T1 sequence (Q9HCE5 whole entry partner): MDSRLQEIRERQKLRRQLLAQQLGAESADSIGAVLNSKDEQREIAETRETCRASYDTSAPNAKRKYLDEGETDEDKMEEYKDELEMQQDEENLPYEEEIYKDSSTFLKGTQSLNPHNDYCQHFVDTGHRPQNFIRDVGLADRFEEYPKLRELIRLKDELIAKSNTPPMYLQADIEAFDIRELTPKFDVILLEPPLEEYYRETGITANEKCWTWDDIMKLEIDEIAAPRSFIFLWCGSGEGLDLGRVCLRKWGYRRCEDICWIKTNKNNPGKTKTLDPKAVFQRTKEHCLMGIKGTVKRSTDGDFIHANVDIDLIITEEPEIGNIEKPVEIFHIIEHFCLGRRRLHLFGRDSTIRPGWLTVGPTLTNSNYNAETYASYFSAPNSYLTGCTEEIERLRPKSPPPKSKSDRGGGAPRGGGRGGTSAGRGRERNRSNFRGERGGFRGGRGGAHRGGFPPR

Consider `O=C(Nc1cc(=O)n2ccsc2n1)C1(c2ccc(N3CCC[C@@H](NCC4CCC4)C3)cn2)COC1` [Compound 311, (R)-3-(5-(3-((cyclobutylmethyl)amino)piperidin-1-yl)pyridin-2-yl)-N-(5-oxo-5H-thiazolo[3,2-a]pyrimidin-7-yl)oxetane-3-carboxamide], for which the values for the pIC50 (in experiment [1]; in the experiment on Kasumi-1 cells; in the experiment with Caov-3 cells) were no less than 7.30, no less than 6.30 and no less than 6.30, respectively.

Take `COc1cncc(-c2cn(C(C)c3ccc(N4CCC[C@@H](NCC5CCC5)C4)cn3)cn2)c1` (stereo partly drawn) [Compound 276, (3R)—N-(cyclobutylmethyl)-1-(6-(1-(4-(5-methoxypyridin-3-yl)-1H-imidazol-1-yl)ethyl)pyridin-3-yl)piperidin-3-amine]: the pIC50 in experiment [1] is no less than 7.30; in the experiment on Kasumi-1 cells, 5.30 to 6.30; in the experiment on Caov-3 cells, no less than 6.30.

Consider `c1cc(C2(n3cnc(-c4cncc(N5CCCC5)n4)c3)COC2)ncc1N1CCC[C@@H](NCC2CC2)C1` [Compound 250, (R)-N-(cyclopropylmethyl)-1-(6-(3-(4-(6-(pyrrolidin-1-yl)pyrazin-2-yl)-1H-imidazol-1-yl)oxetan-3-yl)pyridin-3-yl)piperidin-3-amine], for which the negative logarithm of the IC50 (pIC50) in experiment [1] is no less than 7.30; in the experiment on Kasumi-1 cells, no less than 6.30; in the experiment with Caov-3 cells, no less than 6.30.

On to `O=C(Nc1cncc(N2CCCC2)n1)C1(c2ccc(N3CCC[C@@H](NCC45CC(F)(C4)C5)C3)cn2)COC1` [Compound 269, (R)-3-(5-(3-(((3-fluorobicyclo[1.1.1]pentan-1-yl)methyl)amino)piperidin-1-yl)pyridin-2-yl)-N-(6-(pyrrolidin-1-yl)pyrazin-2-yl)oxetane-3-carboxamide], for which the pIC50 is no less than 7.30 in experiment [1], no less than 6.30 in the experiment on Kasumi-1 cells and no less than 6.30 in the experiment with Caov-3 cells.

`O=c1cc(-c2cn(C3(c4ccc(N5CCC[C@@H](NCC6CC6)C5)cn4)COC3)nn2)nc2ccccn12` [Compound 316, (R)-2-(1-(3-(5-(3-((cyclopropylmethyl)amino)piperidin-1-yl)pyridin-2-yl)oxetan-3-yl)-1H-1,2,3-triazol-4-yl)-4H-pyrido[1,2-a]pyrimidin-4-one]: the pIC50 was no less than 7.30 in experiment [1], 5.30 to 6.30 in the experiment with Kasumi-1 cells and 5.30 to 6.30 in the experiment on Caov-3 cells.

`CC(n1cnc(-c2cncc(N(C)C)c2)c1)n1ccc(N2CCC[C@@H](NCC3CCC3)C2)cc1=O` (single isomer, unassigned) [Compound 166]: the pIC50 is no less than 7.30 in experiment [1], no less than 6.30 in the experiment with Kasumi-1 cells and no less than 6.30 in the experiment with Caov-3 cells.

As to `O=C(Nc1cncc(C2CCCC2)n1)C1(c2ccc(N3CCC[C@@H](NCC4CCC4)C3)cn2)COC1` [Compound 268, (R)-3-(5-(3-((cyclobutylmethyl)amino)piperidin-1-yl)pyridin-2-yl)-N-(6-cyclopentylpyrazin-2-yl)oxetane-3-carboxamide], the pIC50 in experiment [1] is no less than 7.30; in the experiment on Kasumi-1 cells, 5.30 to 6.30; in the experiment with Caov-3 cells, 5.30 to 6.30.

Regarding `CC(n1cc(-c2cncc(N3CC4(COC4)C3)c2)nn1)n1ccc(N2CCC[C@@H](NCC3CCC3)C2)cc1=O` (single isomer, unassigned) [Compound 191], the negative-log IC50 (pIC50) was no less than 7.30 in experiment [1], 5.30 to 6.30 with Kasumi-1 cells and no less than 6.30 in the experiment with Caov-3 cells.

On to `O=C(Nc1cnc2ccccc2n1)C1(c2ccc(N3CCC[C@@H](NCC4CCC4)C3)cn2)COC1` [Compound 297, (R)-3-(5-(3-((cyclobutylmethyl)amino)piperidin-1-Yl)pyridin-2-yl)-N-(quinoxalin-2-yl)oxetane-3-carboxamide], for which the negative-log IC50 (pIC50) in experiment [1] is no less than 7.30; in the experiment with Kasumi-1 cells, less than 5.30; with Caov-3 cells, 5.30 to 6.30.

As for `CC1CN(c2cncc(-c3cn(C(C)n4ccc(N5CCC[C@@H](NCC6CCC6)C5)cc4=O)nn3)c2)C1` (single isomer, unassigned) [Compound 177], the results for the pIC50 (in experiment [1]; with Kasumi-1 cells; in the experiment with Caov-3 cells) were no less than 7.30, no less than 6.30 and no less than 6.30, respectively.

`O=C(Nc1cc(=O)n2ccccc2n1)C1(c2ccc(N3CCC[C@@H](NCC45CC(F)(C4)C5)C3)cn2)COC1` [Compound 263, (R)-3-(5-(3-(((3-fluorobicyclo[1.1.1]pentan-1-yl)methyl)amino)piperidin-1-yl)pyridin-2-yl)-N-(4-oxo-4H-pyrido[1,2-a]pyrimidin-2-yl)oxetane-3-carboxamide]: the results for the pIC50 (in experiment [1]; in the experiment with Kasumi-1 cells; with Caov-3 cells) were no less than 7.30, no less than 6.30 and no less than 6.30, respectively.

On to `O=C(Nc1cc(=O)n2ccccc2n1)C1(c2ccc(N3CCC[C@@H](NC4CCCC4)C3)cn2)COC1` [Compound 326, (R)-3-(5-(3-(cyclopentylamino)piperidin-1-yl)pyridin-2-yl)-N-(4-oxo-4H-pyrido[1,2-a]pyrimidin-2-yl)oxetane-3-carboxamide], for which the figures for the negative logarithm of the IC50 (pIC50) (in experiment [1]; in the experiment with Kasumi-1 cells; in the experiment on Caov-3 cells) were no less than 7.30, 5.30 to 6.30 and no less than 6.30, respectively.

For the compound `CC(n1cc(-c2cncc(N3CCCC3=O)c2)nn1)n1ccc(N2CCC[C@@H](NCC3CCC3)C2)cc1=O` (single isomer, unassigned) [Compound 159], the pIC50 in experiment [1] is no less than 7.30; in the experiment on Kasumi-1 cells, 5.30 to 6.30; with Caov-3 cells, 5.30 to 6.30.

For `CC(c1ccc(N2CCC[C@@H](NCC3CCC3)C2)cn1)n1cc(-c2cncc(-n3cccn3)n2)nn1` (single isomer, unassigned) [Compound 293], the results for the pIC50 (in experiment [1]; in the experiment on Kasumi-1 cells; with Caov-3 cells) were no less than 7.30, 5.30 to 6.30 and 5.30 to 6.30, respectively.

As to `c1ncc(N2CCCC2)nc1-c1cn(C2(c3ccc(N4CCC[C@@H](NCC5CC5)C4)nn3)COC2)nn1` [Compound 213, (R)-N-(cyclopropylmethyl)-1-(6-(3-(4-(6-(pyrrolidin-1-yl)pyrazin-2-yl)-1H-1,2,3-triazol-1-yl)oxetan-3-yl)pyridazin-3-yl)piperidin-3-amine], the negative-log IC50 (pIC50) was no less than 7.30 in experiment [1], no less than 6.30 in the experiment on Kasumi-1 cells and no less than 6.30 in the experiment on Caov-3 cells.

Regarding `c1ncc(N2CCCC2)cc1-c1cn(C2(c3ccc(N4CCC[C@@H](NCC5CC5)C4)nn3)COC2)nn1` [Compound 212, (R)-N-(cyclopropylmethyl)-1-(6-(3-(4-(5-(pyrrolidin-1-yl)pyridin-3-yl)-1H-1,2,3-triazol-1-yl)oxetan-3-yl)pyridazin-3-yl)piperidin-3-amine], the negative-log IC50 (pIC50) in experiment [1] was no less than 7.30; in the experiment on Kasumi-1 cells, no less than 6.30; in the experiment on Caov-3 cells, no less than 6.30.

As for `COc1cc(-c2cn(Cc3ccc(N4CCC[C@@H](NC5CCC5)C4)nn3)nn2)c2cn[nH]c2c1` [Compound 030, (R)-N-cyclobutyl-1-(6-((4-(6-methoxy-1H-indazol-4-yl)-1H-1,2,3-triazol-1-yl)methyl)pyridazin-3-yl)piperidin-3-amine], the pIC50 in experiment [1] was no less than 7.30; in the experiment with Kasumi-1 cells, 5.30 to 6.30; in the experiment on Caov-3 cells, 5.30 to 6.30.

Consider `c1cc(N2CCC[C@@H](NCC3CC3)C2)ncc1C1(n2cc(-c3cncc(N4CCCC4)n3)nn2)COC1` [Compound 207, (R)-N-(cyclopropylmethyl)-1-(5-(3-(4-(6-(pyrrolidin-1-yl)pyrazin-2-yl)-1H-1,2,3-triazol-1-yl)oxetan-3-yl)pyridin-2-yl)piperidin-3-amine], for which the pIC50 is no less than 7.30 in experiment [1], no less than 6.30 with Kasumi-1 cells and no less than 6.30 in the experiment on Caov-3 cells.

With `O=C(Nc1cc(=O)n2ccccc2n1)C1(c2ccc(N3CCC[C@@H](NCC4CC(F)(F)C4)C3)cn2)COC1` [Compound 338, (R)-3-(5-(3-(((3,3-difluorocyclobutyl)methyl)amino)piperidin-1-yl)pyridin-2-yl)-N-(4-oxo-4H-pyrido[1,2-a]pyrimidin-2-yl)oxetane-3-carboxamide], the pIC50 in experiment [1] is no less than 7.30; with Kasumi-1 cells, no less than 6.30; in the experiment on Caov-3 cells it was no less than 6.30.

For `CC(c1ccc(N2CCC[C@@H](NCC3CC3)C2)nn1)n1cc(-c2cncc(N3CCCC3)n2)nn1` (single isomer, unassigned) [Compound 309], the negative-log IC50 (pIC50) in experiment [1] is no less than 7.30; with Kasumi-1 cells, no less than 6.30; in the experiment on Caov-3 cells, no less than 6.30.

As for `CC(n1cc(-c2cncc(N3CCC4(CC4)C3)n2)nn1)n1ccc(N2CCC[C@@H](NCC3CC3)C2)cc1=O` (stereo partly drawn) [Compound 235, 1-(1-(4-(6-(5-azaspiro[2.4]heptan-5-yl)pyrazin-2-yl)-1H-1,2,3-triazol-1-yl)ethyl)-4-((R)-3-((cyclopropylmethyl)amino)piperidin-1-yl)pyridin-2(1H)-one], the negative-log IC50 (pIC50) was no less than 7.30 in experiment [1], no less than 6.30 in the experiment on Kasumi-1 cells and no less than 6.30 with Caov-3 cells.

For `CC(c1ccc(N2CCC[C@@H](NCC34CC(F)(C3)C4)C2)nn1)n1cc(-c2cncc(N3CCCC3)n2)nn1` (stereo partly drawn) [Compound 305, (3R)—N-((3-fluorobicyclo[1.1.1]pentan-1-yl)methyl)-1-(6-(1-(4-(6-(pyrrolidin-1-yl)pyrazin-2-yl)-1H-1,2,3-triazol-1-yl)ethyl)pyridazin-3-yl)piperidin-3-amine], the negative-log IC50 (pIC50) in experiment [1] was no less than 7.30; with Kasumi-1 cells it was no less than 6.30; in the experiment on Caov-3 cells, no less than 6.30.

Take `CC(C)CN[C@@H]1CCCN(c2ccc(C3(n4cc(-c5cncc(C6CC6)c5)nn4)COC3)nc2)C1` [Compound 329, (R)-1-(6-(3-(4-(5-cyclopropylpyridin-3-yl)-1H-1,2,3-triazol-1-yl)oxetan-3-yl)pyridin-3-yl)-N-isobutylpiperidin-3-amine]: the pIC50 is no less than 7.30 in experiment [1], no less than 6.30 in the experiment with Kasumi-1 cells and no less than 6.30 in the experiment on Caov-3 cells.

For the compound `CC(c1ccc(N2CCC[C@@H](NCC3CC3)C2)cn1)c1nnc(-c2cncc(N3CCCC3)n2)s1` (single isomer, unassigned) [Compound 360], the pIC50 in experiment [1] is no less than 7.30; with Kasumi-1 cells it was no less than 6.30; in the experiment with Caov-3 cells, no less than 6.30.

The values above are taken from patent US20250002475A1 (EPICS THERAPEUTICS, priority 2023, published 2025).
